How the values were obtained:
T-tropic HIV = conditions: patients that are dual tropic or with only the T-tropic form of the virus; cited from earlier work
[1] = Compound cytotoxicity in the absence of virus (CellTiter-Glo); format: cell-based; conditions: human; HOS cells, no virus; read-out: Cytotox (pIC50) (converted)
Experimental: (§1) Compounds were profiled against two HIV-1 viruses, the M-tropic (CCR5 utilizing) Ba-L strain and the T-tropic (CXCR4 utilizing) IIIB strain. Both viruses were propagated in human peripheral blood lymphocytes. Compounds were tested for there ability to block infection of the HOS cell line (expressing hCXCR4/hCCR5/hCD4/pHIV-LTR-luciferase) by either HIV-1 Ba-L or HIV-1 IIIB. Compound cytotoxicity was also examined in the absence of virus addition.
(§2) HOS cells (expressing hCXCR4/hCCR5/hCD4/pHIV-LTR-luciferase) were harvested and diluted in Dulbeccos modified Eagles media supplemented with 2% FCS and non-essential amino acid to a concentration of 60,000 cells/ml. The cells were plated into 96-well plates (100 ul per well) and the plates were placed in a tissue culture incubator (37° C.; 5% CO2/95% air) for a period of 24 h.
(§3) Subsequently, 50 ul of the desired drug solution (4 times the final concentration) was added to each well and the plates were returned to the tissue culture incubator (37° C.; 5% CO2/95% air) for 1 h. Following this incubation 50 ul of diluted virus was added to each well (approximately 2 million RLU per well of virus). The plates were returned to the tissue culture incubator (37° C.; 5% CO2/95% air) and were incubated for a further 96 h.
(§4) Following this incubation the endpoint for the virally infected cultures was quantified following addition of Steady-Glo Luciferase assay system reagent (Promega, Madison, Wis.). Cell viability or non-infected cultures was measured using a CellTiter-Glo luminescent cell viability assay system (Promega, Madison, Wis.). All luminescent readouts are performed on a Topcount luminescence detector (Packard, Meridien, Conn.).

[2] = test system: HIV-1 IIIB (T-tropic, CXCR4 utilizing); assay: HOS HIV-1 infectivity assay, IIIB strain; format: cell-based; conditions: Human immunodeficiency virus 1; HOS cells infected with HIV-1 IIIB, 96 h, luciferase; read-out: HOS (3B)
Experimental: as §1, §2, §3, §4

[3] = Cell/cell fusion assay (luciferase); format: cell-based; conditions: Homo sapiens, HEK293; 24 h incubation, luciferase readout; read-out: Fusion assay (pIC50) (converted)
Description: The complete coding sequences of HIV-1 tat (GenBank Accession No. X07861) and rev (GenBank Accession No. M34378) were cloned into pcDNA3.1 expression vectors containing G418 and hygromycin resistance genes, respectively. The complete coding sequence of the HIV-1 (HXB2 strain) gp160 envelope gene (nucleotide bases 6225-8795 of GenBank Accession No. K03455) was cloned into plasmid pCRII-TOPO. The three HIV genes were additionally inserted into the baculovirus shuttle vector, pFastBacMam1, under the transcriptional control of the CMV promoter. A construction of the pHIV—I LTR containing mutated NFkB sequences linked to the luciferase reporter gene was prepared by digesting pcDNA3.1, containing the G418 resistance gene, with Nru I and Bam HI to remove the CMV promoter. LTR-luc was then cloned into the Nru I/Bam HI sites of the plasmid vector. Plasmid preparations were performed after the plasmids were amplified in Escherichia coli strain DH5-alpha. The fidelity of the inserted sequences was confirmed by double-strand nucleotide sequencing using an ABI Prism Model 377 automated sequencer.
Recombinant BacMam baculoviruses were constructed from pFastBacMam shuttle plasmids by using the bacterial cell-based Bac-to-Bac system. Viruses were propagated in Sf9 (Spodoptera frugiperda) cells cultured in Hink's TNM-FH Insect media supplemented with 10% (v/v) fetal bovine serum and 0.1% (v/v) pluronic F-68 according to established protocols.
Human osteosarcoma (HOS) cells that naturally express human CXCR4 were transfected with human CCR5, human CD4 and the pHIV-LTR-luciferase plasmid using FuGENE 6 transfection reagent. Single cells were isolated and grown under selection condition in order to generate a stable HOS (hCXCR4/hCCR5/hCD4/pHIV-LTR-luciferase) clonal cell line. The cells were maintained in Dulbeccos modified Eagles media supplemented with 10% fetal calf serum (FCS), G418 (400 ug/ml), puromycin (1 ug/ml), mycophenolic acid (40 ug/ml), xanthine (250 ug/ml) and hypoxanthine (13.5 ug/ml) to maintain a selection pressure for cells expressing the LTR-luciferase, hCCR5 and hCD4, respectively. Human embryonic kidney (HEK-293) cells stably transfected to express the human macrophage scavenging receptor (Class A, type 1; GenBank Accession No. D90187), were maintained in DMEM/F-12 media (1:1) supplemented with 10% FCS and 1.5 ug/ml puromycin. The expression of this receptor by the HEK-293 cells enhances their ability to stick to tissue culture treated plasticware.
HEK-293 cells were harvested using enzyme-free cell dissociation buffer. The cells were resuspended in DMEM/F-12 media supplemented with 10% FCS and 1.5 ug/ml and counted. […]
Following the 24 h incubation, total cellular luciferase activity was measured using the LucLite Plus assay kit (Packard, Meridien, Conn.). […]

human CXCR4 = target: T1, human CXCR4 (Homo sapiens, UniProt P61073); assay: Functional FLIPR assay (block of SDF-1 alpha induced [Ca2+]i change); format: cell-based; conditions: HEK-293 cells with human CXCR4 BacMam and Gqi5 BacMam; antagonism of SDF-1 alpha; read-out: Functional assay (pIC50) (converted)
T1 construct: expressed in transfected cells; host or cells: HEK-293 cells (stably expressing human macrophage scavenging receptor) transduced with human CXCR4 BacMam and Gqi5 BacMam
T1 sequence (P61073 whole entry): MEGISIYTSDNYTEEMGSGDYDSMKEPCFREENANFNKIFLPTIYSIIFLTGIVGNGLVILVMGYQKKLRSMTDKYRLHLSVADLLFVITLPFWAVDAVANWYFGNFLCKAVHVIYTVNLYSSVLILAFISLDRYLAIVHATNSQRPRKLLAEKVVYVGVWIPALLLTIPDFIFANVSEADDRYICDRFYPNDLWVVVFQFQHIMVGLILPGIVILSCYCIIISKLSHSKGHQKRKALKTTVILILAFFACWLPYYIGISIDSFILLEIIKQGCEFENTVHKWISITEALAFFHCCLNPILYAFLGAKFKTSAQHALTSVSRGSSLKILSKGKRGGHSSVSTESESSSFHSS
Experimental: Human embryonic kidney (HEK-293) cells were maintained and harvested as described above. Cells were plated in 96-well, black clear bottom, poly-lysine coated plates at a concentration of 40,000 cells per well in a final volume of 100 ul containing human CXCR4BacMam (MOI=25) and Gqi5 BacMam (MOI=12.5). The cells were incubated at 37° C., 5% CO2, 95% humidity for 24 h to allow for protein expression.
After the required incubation time the cells were washed once with 50 ul of fresh serum-free DMEM/F12 media containing probenicid. 50 ul of dye solution was then added to the cells (Calcium Plus Assay Kit Dye; Molecular Devices) was dissolved in 200 ml of the above probenicid/BSA containing media and incubated for 1 h. Cell plates were transferred to a Fluorometric Imaging Plate Reader (FLIPR). Upon addition the effect of the compounds on the change in [Ca^2+]i was examined to determine if the compounds were agonists or antagonists (ability to block SDF-1 alpha activity) at the CXCR4 receptor. IC50 values are determined and pKb values are calculated using the Leff and Dougall equation: KB═IC50/((2+([agonist]/EC50̂b) ̂1/b−1) Where IC50 is that defined by the antagonist concentration-response curve [agonist] is the EC80 concentration of agonist used EC50 is that defined by the agonist concentration-response curve b is the slope of the agonist concentration-response curve.

HIV = assay: HOS HIV anti-infectivity assay (strain not stated); format: cell-based; conditions: Human immunodeficiency virus 1, activity level class, read-out: Antiviral acitivity
Experimental: as §1, §2, §3, §4

| IC50 (HIV) | SMILES | T-tropic HIV viral load (T-tropic HIV) | IC50 at 97 h [1] | IC50 [2] | IC50 [3] | IC50 (human CXCR4) |
| --- | --- | --- | --- | --- | --- | --- |
| < 100 nM | CC(C)N1CCN(c2cccc3nc(CN(C)[C@H]4CCOc5cccnc54)cn23)CC1 [Example 8, (4S)—N-Methyl-N-({5-[4-(1-methylethyl)-1-piperazinyl]imidazo[1,2-a]pyridin-2-yl}methyl)-3,4-dihydro-2H-pyrano[3,2-b]pyridin-4-amine] |  |  |  |  |  |
| < 100 nM | CN(C)C1CCN(c2cccc3nc(CN(C)[C@H]4CCOc5cccnc54)cn23)C1 (stereo partly drawn) [Example 9, (4S)—N-({5-[3-(Dimethylamino)-1-pyrrolidinyl]imidazo[1,2-a]pyridin-2-yl}methyl)-N-methyl-3,4-dihydro-2H-pyrano[3,2-b]pyridin-4-amine] |  |  |  |  |  |
| < 100 nM | CN(Cc1cn2c(N3CCC(N)CC3)cccc2n1)[C@H]1CCOc2cccnc21 [Example 10, (4S)—N-{[5-(4-Amino-1-piperidinyl)imidazo[1,2-a]pyridin-2-yl]methyl}-N-methyl-3,4-dihydro-2H-pyrano[3,2-b]pyridin-4-amine] |  |  |  |  |  |
| < 100 nM | CN(Cc1cn2c(N3CCC(N)C3)cccc2n1)[C@H]1CCOc2cccnc21 (stereo partly drawn) [Example 11, (4S)—N-{[5-(3-Amino-1-pyrrolidinyl)imidazo[1,2-a]pyridin-2-yl]methyl}-N-methyl-3,4-dihydro-2H-pyrano[3,2-b]pyridin-4-amine] |  |  |  |  |  |
| < 100 nM | CN1CCN(c2cccc3nc(CN(C)[C@H]4CCOc5cccnc54)cn23)CC1 [Example 13, (4S)—N-Methyl-N-{[5-(4-methyl-1-piperazinyl)imidazo[1,2-a]pyridin-2-yl]methyl}-3,4-dihydro-2H-pyrano[3,2-b]pyridin-4-amine] |  |  |  |  |  |
| < 100 nM | CN1CCN(c2cccc3nc(CN(C)C4CCOc5cccnc54)c(CO)n23)CC1 (stereo not shown) [Example 14, [2-{[3,4-dihydro-2H-pyrano[3,2-b]pyridin-4-yl(methyl)amino]methyl}-5-(4-methyl-1-piperazinyl)imidazo[1,2-a]pyridin-3-yl]methanol] |  |  |  |  |  |

The remaining lines, values behind:

| SMILES | IC50 (HIV) | T-tropic HIV viral load (T-tropic HIV) | IC50 at 97 h [1] | IC50 [2] | IC50 [3] | IC50 (human CXCR4) |
| --- | --- | --- | --- | --- | --- | --- |
| c1cc(CN2CCCNCCNCCCNCC2)ccc1CN1CCCNCCNCCCNCC1 [AMD-3100] |  | significantly reduce T-tropic HIV viral load |  |  |  |  |
| CN(Cc1cn2c(F)cccc2n1)C1CCOc2cccnc21 (stereo not shown) [Example 2, N-[(5-Fluoroimidazo[1,2-a]pyridin-2-yl)methyl]-N-methyl-3,4-dihydro-2H-pyrano[3,2-b]pyridin-4-amine] |  |  | > 10000 nM | > 20000 nM | > 10000 nM | > 10000 nM |
| CN1CCN(c2cccc3nc(CN(C)C4CCOc5cccnc54)cn23)CC1 (stereo not shown) [Example 3, N-Methyl-N-{[5-(4-methyl-1-piperazinyl)imidazo[1,2-a]pyridin-2-yl]methyl}-3,4-dihydro-2H-pyrano[3,2-b]pyridin-4-amine] | < 100 nM |  | > 10000 nM | 17 nM | 2.63 nM | 6.92 nM |
| CN(Cc1cn2c(N3CCNCC3)cccc2n1)C1CCOc2cccnc21 (stereo not shown) [Example 4, N-Methyl-N-{[5-(1-piperazinyl)imidazo[1,2-a]pyridin-2-yl]methyl}-3,4-dihydro-2H-pyrano[3,2-b]pyridin-4-amine] | < 100 nM |  | > 10000 nM | 34 nM | 26.9 nM | 25.1 nM |
| CN(C)CCN(C)c1cccc2nc(CN(C)C3CCOc4cccnc43)cn12 (stereo not shown) [Example 5] | < 100 nM |  | > 10000 nM | 61 nM | 61.7 nM | 69.2 nM |
| CN(Cc1cn2c(N3CCNC(=O)C3)cccc2n1)[C@H]1CCOc2cccnc21 [Example 7, 4-(2-{[(4S)-3,4-Dihydro-2H-pyrano[3,2-b]pyridin-4-yl(methyl)amino]methyl}imidazo[1,2-a]pyridin-5-yl)-2-piperazinone] | 500 to 10000 nM |  |  |  |  |  |
| CN1CCC(N(C)c2cccc3nc(CN(C)C4CCOc5cccnc54)cn23)C1 (stereo not shown) [Example 12, N-Methyl-N-({5-[methyl(1-methyl-3-pyrrolidinyl)amino]imidazo[1,2-a]pyridin-2-yl}methyl)-3,4-dihydro-2H-pyrano[3,2-b]pyridin-4-amine] | < 100 nM |  |  |  |  |  |

— patent publication US20080207634A1, “Chemical Compounds” (priority 2004, published 2008)
